Data: paper PMC5041959, “A high-content EMT screen identifies multiple receptor tyrosine kinase inhibitors with activity on TGFβ receptor” (Oncotarget, 2016)
Where two headings read alike, the source gives them in different places.

Tests used:
NMuMG cells = experiment: High-content microscopy EMT screen in TGFβ-treated NMuMG cells (FA, SF, FN, cell count); assay type: cell-based, murine; conditions: for Emax: read-out: Emax (maximal effect on cell count)
FGFR2 = FGFR2 (Homo sapiens, UniProt P21802); experiment: Biochemical kinase profiling (33PanQinase radiometric assay); conditions: read-out: FGFR2 IC50; ATP at apparent Km
FGFR2, sequence (P21802 22-821): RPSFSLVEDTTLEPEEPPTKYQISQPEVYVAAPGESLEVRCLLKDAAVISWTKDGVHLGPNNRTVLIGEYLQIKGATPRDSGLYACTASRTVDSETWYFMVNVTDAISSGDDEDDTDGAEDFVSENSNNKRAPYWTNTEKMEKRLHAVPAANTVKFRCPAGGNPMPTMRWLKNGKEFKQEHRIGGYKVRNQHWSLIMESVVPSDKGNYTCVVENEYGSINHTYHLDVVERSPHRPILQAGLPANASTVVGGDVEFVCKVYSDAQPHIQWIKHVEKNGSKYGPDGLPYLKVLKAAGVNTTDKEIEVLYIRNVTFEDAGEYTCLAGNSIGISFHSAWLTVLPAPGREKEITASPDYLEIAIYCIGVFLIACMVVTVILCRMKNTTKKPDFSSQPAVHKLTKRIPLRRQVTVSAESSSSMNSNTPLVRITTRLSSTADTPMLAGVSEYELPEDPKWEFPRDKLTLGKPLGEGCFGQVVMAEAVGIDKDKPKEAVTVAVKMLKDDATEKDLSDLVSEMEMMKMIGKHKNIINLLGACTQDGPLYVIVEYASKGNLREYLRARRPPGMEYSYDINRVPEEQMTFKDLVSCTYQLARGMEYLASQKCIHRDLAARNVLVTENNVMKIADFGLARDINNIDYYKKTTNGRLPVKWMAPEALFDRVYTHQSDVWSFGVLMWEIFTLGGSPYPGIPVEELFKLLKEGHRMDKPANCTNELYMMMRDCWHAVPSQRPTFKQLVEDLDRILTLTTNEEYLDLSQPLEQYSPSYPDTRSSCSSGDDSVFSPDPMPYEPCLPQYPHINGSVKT

PDGFRA = PDGFRA (Homo sapiens, UniProt P16234); experiment: as above; conditions: read-out: PDGFRA IC50; ATP at apparent Km
PDGFRA, sequence (P16234 24-1089): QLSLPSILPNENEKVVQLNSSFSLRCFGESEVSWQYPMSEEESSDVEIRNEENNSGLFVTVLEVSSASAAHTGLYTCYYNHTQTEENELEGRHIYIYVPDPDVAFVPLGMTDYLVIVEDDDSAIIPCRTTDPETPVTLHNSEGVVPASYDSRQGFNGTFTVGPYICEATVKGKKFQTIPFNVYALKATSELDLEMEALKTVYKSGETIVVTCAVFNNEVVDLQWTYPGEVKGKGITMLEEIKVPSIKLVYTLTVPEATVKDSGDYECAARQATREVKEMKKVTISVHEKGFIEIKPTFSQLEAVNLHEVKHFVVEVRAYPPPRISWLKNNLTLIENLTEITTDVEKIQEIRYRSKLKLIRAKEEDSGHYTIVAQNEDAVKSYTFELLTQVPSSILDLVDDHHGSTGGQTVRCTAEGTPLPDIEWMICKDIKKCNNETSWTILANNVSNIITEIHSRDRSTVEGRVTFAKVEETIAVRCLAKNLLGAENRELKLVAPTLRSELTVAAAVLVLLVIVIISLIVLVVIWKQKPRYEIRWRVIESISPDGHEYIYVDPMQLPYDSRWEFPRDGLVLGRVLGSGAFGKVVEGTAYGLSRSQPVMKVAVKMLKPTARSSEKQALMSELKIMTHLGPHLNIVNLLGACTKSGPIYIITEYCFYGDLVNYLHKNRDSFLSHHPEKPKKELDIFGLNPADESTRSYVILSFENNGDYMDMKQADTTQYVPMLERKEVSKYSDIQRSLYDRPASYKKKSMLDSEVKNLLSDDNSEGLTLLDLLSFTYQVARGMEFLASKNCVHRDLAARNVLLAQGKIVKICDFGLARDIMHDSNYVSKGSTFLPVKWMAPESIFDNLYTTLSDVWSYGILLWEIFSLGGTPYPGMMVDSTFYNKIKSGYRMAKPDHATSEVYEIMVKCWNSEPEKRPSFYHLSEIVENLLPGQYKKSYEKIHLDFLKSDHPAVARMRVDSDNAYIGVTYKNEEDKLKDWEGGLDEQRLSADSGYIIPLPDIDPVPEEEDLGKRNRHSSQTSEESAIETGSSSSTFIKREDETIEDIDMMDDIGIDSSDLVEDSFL

TGFBR1 = target: T1, TGFBR1 (Homo sapiens, UniProt P36897); experiment: as above; conditions: read-out: TGFBR1 IC50; ATP at apparent Km
T1 sequence (P36897 34-503): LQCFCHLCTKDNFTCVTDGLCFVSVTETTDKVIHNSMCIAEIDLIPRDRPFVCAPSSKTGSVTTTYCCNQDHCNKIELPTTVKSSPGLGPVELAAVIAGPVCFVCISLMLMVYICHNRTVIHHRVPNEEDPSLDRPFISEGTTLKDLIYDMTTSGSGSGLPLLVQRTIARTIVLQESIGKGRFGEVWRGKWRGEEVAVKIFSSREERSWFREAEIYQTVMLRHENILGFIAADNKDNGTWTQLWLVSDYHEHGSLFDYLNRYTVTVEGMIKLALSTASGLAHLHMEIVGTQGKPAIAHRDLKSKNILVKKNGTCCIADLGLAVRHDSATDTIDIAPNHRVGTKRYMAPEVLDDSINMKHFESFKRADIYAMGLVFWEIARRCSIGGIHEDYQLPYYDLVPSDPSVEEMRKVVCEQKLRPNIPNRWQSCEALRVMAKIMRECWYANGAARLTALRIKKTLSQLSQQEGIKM

ROCK = ROCK cellular assay (MLC Thr18/Ser19 phosphorylation ELISA in A7r5 cells); assay type: cell-based, rat; conditions: 90 min compound
TGFBR2 = TGFBR2 (Homo sapiens, UniProt P37173); experiment: Biochemical kinase profiling (33PanQinase radiometric assay); conditions: read-out: TGFBR2 IC50; ATP at apparent Km
TGFBR2, sequence (P37173 23-567): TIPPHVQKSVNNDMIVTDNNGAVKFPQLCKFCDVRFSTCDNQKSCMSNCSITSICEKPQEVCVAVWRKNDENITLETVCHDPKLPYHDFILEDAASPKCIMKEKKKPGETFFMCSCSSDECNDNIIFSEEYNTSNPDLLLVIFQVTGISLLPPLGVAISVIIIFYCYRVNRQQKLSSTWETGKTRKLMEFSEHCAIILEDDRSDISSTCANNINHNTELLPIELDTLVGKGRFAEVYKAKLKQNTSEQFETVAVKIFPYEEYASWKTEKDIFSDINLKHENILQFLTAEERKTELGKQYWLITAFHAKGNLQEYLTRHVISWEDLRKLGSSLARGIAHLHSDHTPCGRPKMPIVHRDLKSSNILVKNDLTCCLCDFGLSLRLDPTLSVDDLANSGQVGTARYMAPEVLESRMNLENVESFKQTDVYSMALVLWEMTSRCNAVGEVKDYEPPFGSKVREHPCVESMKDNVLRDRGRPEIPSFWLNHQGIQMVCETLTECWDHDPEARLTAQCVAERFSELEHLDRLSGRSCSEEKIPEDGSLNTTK

PDGFRB = PDGFRB (Homo sapiens, UniProt P09619); experiment: as above; conditions: read-out: PDGFRB IC50; ATP at apparent Km
PDGFRB, sequence (P09619 33-1106): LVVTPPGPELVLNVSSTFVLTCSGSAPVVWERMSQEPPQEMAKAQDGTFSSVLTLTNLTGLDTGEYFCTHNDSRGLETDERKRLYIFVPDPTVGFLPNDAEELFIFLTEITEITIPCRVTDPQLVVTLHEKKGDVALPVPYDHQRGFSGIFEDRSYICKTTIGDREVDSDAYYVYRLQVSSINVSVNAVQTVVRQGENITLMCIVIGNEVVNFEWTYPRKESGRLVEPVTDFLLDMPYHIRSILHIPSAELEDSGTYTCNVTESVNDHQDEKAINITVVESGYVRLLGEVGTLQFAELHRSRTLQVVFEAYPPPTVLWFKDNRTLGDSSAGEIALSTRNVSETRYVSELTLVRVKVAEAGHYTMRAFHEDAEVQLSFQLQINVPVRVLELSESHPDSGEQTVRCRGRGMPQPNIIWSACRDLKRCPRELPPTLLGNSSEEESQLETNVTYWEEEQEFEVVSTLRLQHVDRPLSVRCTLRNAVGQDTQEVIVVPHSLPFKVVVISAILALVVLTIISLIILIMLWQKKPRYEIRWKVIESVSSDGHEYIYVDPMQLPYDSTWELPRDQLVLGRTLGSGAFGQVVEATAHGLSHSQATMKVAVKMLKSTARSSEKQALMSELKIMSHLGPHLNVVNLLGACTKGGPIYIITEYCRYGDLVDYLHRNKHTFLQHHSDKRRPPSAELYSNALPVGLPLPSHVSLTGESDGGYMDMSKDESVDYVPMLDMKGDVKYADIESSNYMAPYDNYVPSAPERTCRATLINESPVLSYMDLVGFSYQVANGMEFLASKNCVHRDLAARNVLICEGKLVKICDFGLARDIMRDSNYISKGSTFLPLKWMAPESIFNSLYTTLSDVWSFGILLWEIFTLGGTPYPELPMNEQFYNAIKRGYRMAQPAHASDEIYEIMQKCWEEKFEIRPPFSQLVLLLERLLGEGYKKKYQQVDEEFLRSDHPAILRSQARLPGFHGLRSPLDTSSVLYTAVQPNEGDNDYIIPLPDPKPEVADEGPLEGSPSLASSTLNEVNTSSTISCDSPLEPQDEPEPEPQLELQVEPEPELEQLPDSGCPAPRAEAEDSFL

Py2T cells = experiment: High-content microscopy EMT assay in TGFβ-treated Py2T breast cancer cells; assay type: cell-based, murine; conditions: Mus musculus
ROCK2 = ROCK2 (Homo sapiens, UniProt O75116); experiment: Biochemical kinase profiling (33PanQinase radiometric assay)
ROCK2, sequence (O75116 whole entry): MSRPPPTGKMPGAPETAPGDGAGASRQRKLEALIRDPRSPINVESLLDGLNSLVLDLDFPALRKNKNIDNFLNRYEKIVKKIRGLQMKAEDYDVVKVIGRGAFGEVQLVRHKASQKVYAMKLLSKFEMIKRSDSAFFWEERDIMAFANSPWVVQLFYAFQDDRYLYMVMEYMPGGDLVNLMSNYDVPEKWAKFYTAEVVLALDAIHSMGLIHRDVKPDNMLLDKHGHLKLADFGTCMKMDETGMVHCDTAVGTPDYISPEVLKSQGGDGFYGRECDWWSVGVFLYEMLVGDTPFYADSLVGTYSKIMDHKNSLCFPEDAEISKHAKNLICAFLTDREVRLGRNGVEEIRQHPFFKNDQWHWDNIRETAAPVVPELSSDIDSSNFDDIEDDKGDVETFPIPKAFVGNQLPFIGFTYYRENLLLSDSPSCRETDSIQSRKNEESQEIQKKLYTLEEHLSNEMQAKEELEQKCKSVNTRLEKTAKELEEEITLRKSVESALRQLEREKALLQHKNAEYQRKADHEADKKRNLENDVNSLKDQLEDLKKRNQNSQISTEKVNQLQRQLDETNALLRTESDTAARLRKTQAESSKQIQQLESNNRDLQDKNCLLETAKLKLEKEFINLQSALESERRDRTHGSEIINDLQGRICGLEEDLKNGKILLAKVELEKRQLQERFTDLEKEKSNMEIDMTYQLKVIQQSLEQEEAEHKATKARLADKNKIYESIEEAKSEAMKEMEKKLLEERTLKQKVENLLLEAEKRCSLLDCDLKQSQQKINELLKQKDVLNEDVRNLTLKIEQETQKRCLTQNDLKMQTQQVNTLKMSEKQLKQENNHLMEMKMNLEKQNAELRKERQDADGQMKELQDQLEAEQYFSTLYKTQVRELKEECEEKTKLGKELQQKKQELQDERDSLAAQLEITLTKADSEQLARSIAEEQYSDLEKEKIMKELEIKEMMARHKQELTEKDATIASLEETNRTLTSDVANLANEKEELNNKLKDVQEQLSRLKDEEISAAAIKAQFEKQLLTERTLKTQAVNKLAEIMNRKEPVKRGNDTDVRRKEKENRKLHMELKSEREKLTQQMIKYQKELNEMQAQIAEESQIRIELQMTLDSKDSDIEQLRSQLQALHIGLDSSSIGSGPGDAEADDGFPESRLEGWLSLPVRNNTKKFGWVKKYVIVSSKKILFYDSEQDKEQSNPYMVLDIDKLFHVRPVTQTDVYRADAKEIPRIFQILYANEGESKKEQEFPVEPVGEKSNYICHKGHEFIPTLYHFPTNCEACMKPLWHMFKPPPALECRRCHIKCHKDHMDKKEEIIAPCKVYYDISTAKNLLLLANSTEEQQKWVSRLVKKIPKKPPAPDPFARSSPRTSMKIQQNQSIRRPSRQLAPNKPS

[1] = Mus musculus, NMuMG, cell count decreased by 50% compared to DMSO control, read-out: Tox IC50
[2] = NMuMG, TGFβ1 2 ng/ml plus compound, 4 days, parameter decreased by 50%
[3] = NMuMG, compared to reference 10 μM SB-431542 = 100%
[4] = NMuMG, cell count decreased by 50% compared to DMSO control, read-out: Tox IC50
[5] = Mus musculus, 96 h, NMuMG, TGFβ1 2 ng/ml plus compound, 4 days, parameter decreased by 50%, read-out: FA IC50 (focal adhesion formation)
[6] = Mus musculus, 96 h, NMuMG, TGFβ1 2 ng/ml plus compound, 4 days, parameter decreased by 50%, read-out: FN IC50 (fibronectin patch formation)
[7] = Mus musculus, 96 h, NMuMG, TGFβ1 2 ng/ml plus compound, 4 days, parameter decreased by 50%, read-out: SF IC50 (stress fibers)
[8] = Mus musculus, read-out: CCI IC50 (cell count increase)

Nc1ncn([C@H]2C[C@H](O)[C@@H](CO)O2)c(=O)n1 [5-Aza-2′-deoxycytidine]
IC50 (NMuMG cells; [1]): 0.391 µM
FA IC50 (focal adhesion formation) (NMuMG cells; [2]): n.m.
FN IC50 (fibronectin patch formation) (NMuMG cells; [2]): n.m.
SF IC50 (stress fibers) (NMuMG cells; [2]): n.m.
Emax (maximal effect on cell count) (NMuMG cells; [3]): n.m.

CC(C)(C)n1nc(-c2ccc(Cl)cc2)c2c(N)ncnc21 [PP2]
FA IC50 (focal adhesion formation) (NMuMG cells; [2]): n.m.
FN IC50 (fibronectin patch formation) (NMuMG cells; [2]): n.m.
SF IC50 (stress fibers) (NMuMG cells; [2]): n.m.
IC50 (NMuMG cells; [4]): 4.73 µM
CCI IC50 (cell count increase) (NMuMG cells; NMuMG, cell count increased by 50% compared to 100% with 10 μM SB-431542): n.m.
Emax (maximal effect on cell count) (NMuMG cells; [3]): n.m.

COc1cc([C@@H]2c3cc4c(cc3[C@@H](O[C@@H]3O[C@@H]5CO[C@@H](C)O[C@H]5[C@H](O)[C@H]3O)[C@H]3COC(=O)[C@H]23)OCO4)cc(OC)c1O [Etoposide]
IC50 (NMuMG cells; [1]): 1.17 µM
FA IC50 (focal adhesion formation) (NMuMG cells; [2]): n.m.
FN IC50 (fibronectin patch formation) (NMuMG cells; [2]): n.m.
SF IC50 (stress fibers) (NMuMG cells; [2]): n.m.
Emax (maximal effect on cell count) (NMuMG cells; [3]): n.m.

Cc1[nH]c(/C=C2\C(=O)Nc3ccccc32)c(C)c1CCC(=O)O [TSU-68]
IC50 (FGFR2): 0.59 µM
IC50 (PDGFRA): 0.0782 µM
IC50 (TGFBR1): > 10 µM
IC50 (NMuMG cells; NMuMG, TGFβ1 2 ng/ml plus compound, 4 days, parameter decreased by 50%, read-out: FA IC50 (focal adhesion formation)): > 10 µM
IC50 (NMuMG cells; NMuMG, TGFβ1 2 ng/ml plus compound, 4 days, parameter decreased by 50%, read-out: FN IC50 (fibronectin patch formation)): > 10 µM
IC50 (NMuMG cells; NMuMG, TGFβ1 2 ng/ml plus compound, 4 days, parameter decreased by 50%, read-out: SF IC50 (stress fibers)): > 10 µM
IC50 (NMuMG cells; [4]): > 10 µM
IC50 (NMuMG cells; NMuMG, cell count increased by 50% compared to 100% with 10 μM SB-431542, read-out: CCI IC50 (cell count increase)): > 10 µM
Emax (maximal effect on cell count) (NMuMG cells; [3]): 1.7%
IC50 (ROCK): > 10 µM
IC50 (TGFBR2): > 10 µM
IC50 (PDGFRB): 0.103 µM

AZD4547
CCI IC50 (cell count increase) (NMuMG cells): n.m.
Emax (maximal effect on cell count) (NMuMG cells): n.m.
FA IC50 (focal adhesion formation) (NMuMG cells; [2]): n.m.
FN IC50 (fibronectin patch formation) (NMuMG cells; [2]): n.m.
SF IC50 (stress fibers) (NMuMG cells; [2]): n.m.
IC50 (NMuMG cells; [4]): 3.03 µM

Cc1nc(Nc2ncc(C(=O)Nc3c(C)cccc3Cl)s2)cc(N2CCN(CCO)CC2)n1 [Dasatinib]
IC50 (NMuMG cells; [1]): 0.0509 µM
FA IC50 (focal adhesion formation) (NMuMG cells; [2]): n.m.
FN IC50 (fibronectin patch formation) (NMuMG cells; [2]): n.m.
SF IC50 (stress fibers) (NMuMG cells; [2]): n.m.
Emax (maximal effect on cell count) (NMuMG cells; [3]): n.m.

CN(C)CCOc1cc(-c2cn[nH]c2)ccc1NC(=O)C1COc2ccccc2O1 (stereo not shown) [SR-3677]
IC50 (Py2T cells; 96 h, Py2T, TGFβ plus compound, 4 days, read-out: FA IC50 (focal adhesions)): 0.415 µM
IC50 (Py2T cells; 96 h, Py2T, TGFβ plus compound, 4 days, read-out: FN IC50 (fibronectin patches)): 0.521 µM
IC50 (Py2T cells; 96 h, Py2T, TGFβ plus compound, 4 days, read-out: SF IC50 (stress fibers)): 0.089 µM
IC50 (Py2T cells; Py2T, cell count decreased by 50% compared to DMSO control, read-out: Tox IC50): 6.81 µM
IC50 (Py2T cells; read-out: CCI IC50 (cell count increase)): 0.015 µM
Emax (Py2T cells; read-out: Emax (maximal effect on cell count)): 51%
IC50 (NMuMG cells; [5]): 0.16 µM
IC50 (NMuMG cells; [6]): 0.179 µM
IC50 (NMuMG cells; [7]): 0.031 µM
IC50 (NMuMG cells; [1]): > 25 µM
IC50 (NMuMG cells; Mus musculus, NMuMG, mean of IC50 values obtained for FA, SF, FN, read-out: EMT (FA/SF/FN) combined IC50): 0.123 µM
IC50 (NMuMG cells; [8]): 0.0506 µM
Emax (NMuMG cells; Mus musculus): 34.7%
IC50 (ROCK2): 0.076 µM

C#Cc1cccc(Nc2ncnc3cc(OCCOC)c(OCCOC)cc23)c1 [Erlotinib]
Emax (maximal effect on cell count) (NMuMG cells): n.m.
IC50 (NMuMG cells; [1]): 0.0685 µM
FA IC50 (focal adhesion formation) (NMuMG cells; [2]): n.m.
FN IC50 (fibronectin patch formation) (NMuMG cells; [2]): n.m.
SF IC50 (stress fibers) (NMuMG cells; [2]): n.m.

O=c1[nH]c(=O)n([C@H]2C[C@H](O)[C@@H](CO)O2)cc1Br [5-Bromo-2′-deoxyuridine]
IC50 (NMuMG cells; [5]): 0.719 µM
IC50 (NMuMG cells; [6]): 0.321 µM
IC50 (NMuMG cells; [7]): 0.632 µM
IC50 (NMuMG cells; [1]): > 3 µM
IC50 (NMuMG cells; [8]): 0.3 µM
Emax (NMuMG cells; Mus musculus): 19%
